According to US8841339B2, “Synergistic antifouling compositions comprising 4-bromo-2-(4-chlorophenyl)-5-(trifluoromethyl)-1H-pyrrole-3-carbonitrile” (Janssen Pharmaceutica N.V., priority 2001, dated 2014):
Marks after values point to notes of the source that are not given here.

Experiments:
[1] = tested on: Stichococcus bacillaris (CCAP 379/1A); experiment: Poison plate assay in 96 multi-well plates, algae growth; assay type: cell-based; conditions: single active ingredient, incubation time 18 days
Procedure: (§1) Activity against algae growth was determined with the poison plate assay. A calculated amount of a stock solution (containing either 4-bromo-2-(4-chlorophenyl)-5-(trifluoromethyl)-1H-pyrrole-3-carbonitrile, bethoxazin, DCOIT, dichlofluanide, or tolylfluanide in DMSO) was pipetted into multiwell plates in order to reach a final test concentration ranging from 0.05 to 100 ppm and mixed with a warm culture medium. The medium was inoculated with 300 μl of an algal suspension. The multi-well plates were kept at 21° C., a relative humidity of 65% and light-dark cycle of 16 hours a day (1000 Lux photoperiod).
(§2) The lowest concentration of each test compound or mixture of test compounds sufficient to inhibit visible growth was taken as the minimum inhibitory concentration (MIC). The MIC were taken as end points of activity. End points for the combinations of component (I) with one of the components (II) were then compared with the end points for the pure active test compound when employed individually.
(§3) Synergism between component (I) and one of the components (II) was determined by a commonly used and accepted method described by Kull F. C. et al. in Applied Microbiology, 9, 538-541 (1961) using the Synergy Index, which is calculated as follows for two compounds A and B:
(§4) [formula] wherein: • QA is the concentration of compound A in ppm, acting alone, which produced an end point (e.g. MIC), • Qa is the concentration of compound A in ppm, in the mixture, which produced an end point (e.g. MIC), • QB is the concentration of compound B in ppm, acting alone, which produced an end point (e.g. MIC), • Qb is the concentration of compound B in ppm, in the mixture, which produced an end point (e.g. MIC).
(§5) When the Synergy Index is greater than 1.0, antagonism is indicated. When the SI is equal to 1.0, additivity is indicated.

[2] = tested on: Chlorella vulgaris (CCAP 211/12); experiment: as above; assay type: cell-based; conditions: single active ingredient, incubation time 18 days
Procedure: as §1, §2, §3, §4, §5

## N#Cc1c(-c2ccc(Cl)cc2)[nH]c(C(F)(F)F)c1Br [component (I), 4-bromo-2-(4-chlorophenyl)-5-(trifluoromethyl)-1H-pyrrole-3-carbonitrile]
[1]
  MIC-values (minimum inhibitory concentration): > 100* ppm
[2]
  MIC-values (minimum inhibitory concentration): > 100* ppm

## [O-][S+]1CCON=C1c1cc2ccccc2s1 (stereo not shown) [component (II-a), 3-(benzo[b]thien-2-yl)-5,6-dihydro-1,4,2-oxathiazine 4-oxide]
[1]
  MIC-values (minimum inhibitory concentration): 6.2 ppm
[2]
  MIC-values (minimum inhibitory concentration): 1.6 ppm

## Cc1ccc(N(SC(F)(Cl)Cl)S(=O)(=O)N(C)C)cc1 [component (II-b), 1,1-dichloro-N-[(dimethylamino)sulfonyl]-1-fluoro-N-(4-methylphenyl)-methanesulfenamide]
[1]
  MIC-values (minimum inhibitory concentration): 12.5 ppm
[2]
  MIC-values (minimum inhibitory concentration): 25 ppm

## CN(C)S(=O)(=O)N(SC(F)(Cl)Cl)c1ccccc1 [component (II-c), 1,1-dichloro-N-[(dimethylamino)sulfonyl]-1-fluoro-N-phenyl-methanesulfenamide]
[1]
  MIC-values (minimum inhibitory concentration): 25 ppm
[2]
  MIC-values (minimum inhibitory concentration): 25 ppm

## CCCCCCCCn1sc(Cl)c(Cl)c1=O [component (II-d), 4,5-dichloro-2-(n-octyl)-3(2H)-isothiazolone]
[1]
  MIC-values (minimum inhibitory concentration): 1.6 ppm
[2]
  MIC-values (minimum inhibitory concentration): 1.6 ppm
